# Values joined by “and” are separate entries in the source; they are usually repeats but may differ in a detail not shown here. Equal values may be shown once.
# What was measured:
# [1] = Single-dose oral pharmacokinetics of CBD oil in beagles (serum CBD by LC-MS); format: in vivo; settings: male, beagle, dog, median of 4 dogs, read-out: T½ elim (converted)
# Method: An initial investigation into single-dose oral pharmacokinetics was performed with 4 beagles (3.5-7 years, male castrated, 10.7-11.9 kg). Each dog received a 2 mg/kg and an 8 mg/kg oral dosage of CBD oil, with a 2-week washout period between each experiment. The dogs were fed two hours after dosing. Physical examination was performed at 0, 4, 8 and 24 hours after dosing. Attitude, behavior, proprioception, and gait were subjectively evaluated at each time point during free running/walking and navigation around standard traffic cones (weaving). Five ml of blood was collected at time 0, 0.5, 1, 2, 4, 8, 12 and 24 hours after oil administration. Blood samples were obtained via jugular venipuncture and transferred to a coagulation tube for 20 minutes. […]
# From the UHPLC-QQQ-MS data, peak areas were extracted for CBD detected in biological samples and normalized to the peak area of the internal standard CBD-d3, in each sample using Skyline as well as an in-house R Script (www.r-project.org). CBD concentrations were calculated to nanograms per mL of serum as determined by the line of regression of the standard curve (r2=0.9994, 0-1000 ng/mL). For this assay, the limits of detection (LOD) and limits of quantification (LOQ) represent the lower limits of detection and quantification for each compound in the matrix of this study. […]
# [2] = Feline pharmacokinetics (cannabidiol in serum by LC-MS/MS); format: in vivo, cat; set-up: AUC 0 −> t: concentration or dose not given beside the values
# Method: On the first day of dosing, blood was collected for a PK analysis from 6 of the 8 cats. The most cooperative cats were selected for the PK analysis. […] Samples were placed into a red top clotting tube with no serum separator. […] The harvested serum was placed in cyrovials stored at −70° C. Each tube was labeled with the cat id, date of collection and collection time point. Samples were shipped overnight on dry ice to the Proteomics & Metabolomics Facility at Colorado State University.
# 200 μL of cold (−20 C) 100% Acetonitrile (spiked with 60 ng/mL of d3-CBD) was added to each sample and vortexed at room temperature for 5 minutes. 200 μL of water was added and vortexed for an additional 5 minutes. 1 ml of 100% hexane was then added to each sample and vortexed for a final 5 minutes. […] The upper hexane layer was transferred to new-labeled glass vials (˜900 uL per sample), carefully avoiding the middle and lower layers.
# An 8 point standard curve of CBD was generated in matrix background using a blank serum. Concentrations ranged from 0 ng/mL 1000 ng/mL (3.2× dilution series). 50 uL of each spiked serum sample was extracted as above.
# LC-MS/MS was performed on a Waters Acquity M-Class UPLC coupled to a Waters Xevo TQ-S triple quadrupole mass spectrometer. […] Flow rate was 3.0 μL/min and injection volume was 2.0 μL. […]
# Each target analyte was visually inspected for retention time and peak area integration. Peak areas were extracted for target compounds detected in biological samples and normalized to the peak area of the appropriate internal standard in each sample using in-house R Script (TQS-tools). CBD concentrations were calculated in nanograms per milliliter of extract (0.06 mL) and then back calculated to nanograms per mL of serum (0.05 mL of serum).
# LOD are calculated based on the standard deviation of the response (Sy) of the 0 point calibration standard (i.e., 0 ng/mL CBD as an estimate on noise) and the slope of the calibration curve (S) at levels approximating the LOD according to the formula: LOD=^3*(Sy/S). […]
structure (smiles),measurement,setting,value
"C=C(C)[C@@H]1CCC(C)=C[C@H]1c1c(O)cc(CCCCC)cc1O [Cannabidiol, cannabidiol]",half-life,[1]; 2 mg/kg single oral dose,4.2 h
same,half-life,[1]; 8 mg/kg single oral dose,4.2 h
same,AUC 0 −> t,"[2]; individual cats, 0 time to last collection [24 hr]",265.0 ng·h/mL and 54.2 ng·h/mL and 42.4 ng·h/mL and 212.2 ng·h/mL and 125.0 ng·h/mL and 134.2 ng·h/mL and 60.2 ng·h/mL
same,Cmax,"[2]; serum, po, 2 mg/kg",47.6 ng/mL
same,half-life,"[2]; serum, po, 2 mg/kg, individual cats, oral 2/mg/kg cannabidiol in capsule form, read-out: T½ el (converted)",1.2 h

# Source: patent US20220249586A1, “HEMP EXTRACT AND METHODS OF USE THEREOF” (ElleVet Sciences, priority 2019, published 2022)
